Results taken from patent US20250353847A1, “CRYSTALLINE FORMS OF AN AKRIC3 DEPENDENT KARS INHIBITOR” (Novartis AG, priority 2022, published 2025).
Blank lines part the entries; values can stand above or below the compound they belong to.

What was measured:
Format in all cases: physicochemical
[1] = Xenon light stress (1200 kLuxh); set-up: key to CL color: A: No change of color; B: Slight discoloration; C: Medium discoloration; D: Strong discoloration; —: Test not performed; conditions: for Bulk (XRPD) solid form after stress / DP[%] degradation products, Bulk (HPLC) / CL color: Xenon light (1200 kLuxh); for CL color: bulk
Source text: (§1) Both solid forms of the Compound of Formula (I) are also stable in mixtures with excipients.

[2] = Stability 1% in excipient mixtures, 2 weeks 50° C.
Source text: as §1

[3] = Solid state bulk stability, 1 week 80° C. tight container and 80° C./75% RH; conditions: for Bulk (XRPD) solid form after stress / DP[%] degradation products, Bulk (HPLC): Solid state
Humidity controlled XRPD = assay: Humidity controlled XRPD
[4] = Slurry experiments of Form A and Hydrate HA in media with different water activities
Procedure: Form A is stable at water activities of aw=0.7 and below, whereas the hydrate is stable at aw=0.9 and above. At 40° C. Form A is stable at water activities of aw=0.8 and below, whereas the hydrate is stable at aw>0.95.

[5] = Solid form transformation / decomposition upon heating
Procedure: DSC thermograms were recorded with a TA Discovery DSC instrument using heat flux compensation (TA Instruments, USA). The TA Discovery instrument was calibrated for temperature and enthalpy according to the manufacturer's instructions using certified reference substances like indium. About 2 mg of sample material was sealed in a standard pin-holed aluminum pan and heated in the DSC from 0° C. to 300° C., at a heating rate of 10° C./min. Dry nitrogen gas, at a flow rate of 50 ml/min was used to purge the DSC equipment during the measurement.
Thermogravimetric analysis was performed using a TA Discovery TGA instrument (TA Instruments, USA). About 2-10 mg of sample material was sealed in a standard aluminum pan with pierced lid and heated in the TGA from 30° C. to 250° C., at a heating rate of 10° C./min. Dry N2 gas, at a flow rate of 20 ml/min was used to purge the TGA equipment during the measurement.

[6] = Competitive slurry experiments and equilibration studies in solvents; conditions: for Outcome of competitive slurry experiment with Form A: 25° C.
[7] = Stability in 0.1% solutions or suspensions, 1 week 80° C. (pH stability study); set-up: key to CL color: A: No change of color; B: Slight discoloration; C: Medium discoloration; D: Strong discoloration; —: Test not performed; key to Suspension or clear solution after stress test: ↓: Suspension; *: Clear solution after stress test; conditions: for CL color / DP[%] degradation products (HPLC area-%): 0.1% solution or suspension; for CL color / DP[%] degradation products (HPLC area-%) / Suspension or clear solution after stress test: 1 week 80° C.; for Suspension or clear solution after stress test: 0.1%
[8] = as above; set-up: key to CL color: A: No change of color; B: Slight discoloration; C: Medium discoloration; D: Strong discoloration; —: Test not performed; key to Suspension or clear solution after stress test: ↓: Suspension; *: Clear solution after stress test; conditions: for Suspension or clear solution after stress test: 0.1%
Procedure: In a pH stability study, 0.1% suspension/solutions of the compound of Formula (I) in buffer solutions of various pHs were exposed to 80° C. for one week. The compound of Formula (I) degraded the most in pH 1 buffer, about 5%, whereas at high pH degradation was less than 1% after 1 week at 80° C.

[9] = Hygroscopicity / water uptake
Procedure: The maximum water uptake of Form A is 0.6% at 95% relative humidity at 25° C. Form A is stable at water activity of aw=0.7 at 25° C.
Form A is an anhydrous crystalline form with a melting onset of about 208° C. and melting enthalpy of about 111-119 J/g.

[10] = 80° C. and 80° C. and 75% RH for one week
[11] = listed as Modification A (NX-27)
[12] = 1 week 80° C., tight container, listed as Modification A (NX-27)

SMILES: O=C1CC2(CCN(C(=O)NCc3ccc(F)cc3)CC2)Nc2ccc(F)cc21 [amorphous, 6′-fluoro-N-(4-fluorobenzyl)-4′-oxo-3′,4′-dihydro-1′H-spiro[piperidine-4,2′-quinoline]-1-carboxamide]
Bulk (XRPD) solid form after stress [1]: No change | DP[%] degradation products, Bulk (HPLC) [1]: 0.7% | CL color [1]: A | Increase in degradation products upon light stress ([1]; listed as amorphous form): no degradation was observed | DP[%] degradation products ([2]; 1% in mixture 1 (Dry Blend), 2 weeks 50° C., tight container): 0.8% | DP[%] degradation products ([2]; 1% in mixture 1 (Dry Blend), 2 weeks 50° C./75% RH): 0.8% | DP[%] degradation products ([2]; 1% in mixture 2 (Wet granulation), 2 weeks 50° C., tight container): 0.8% | DP[%] degradation products ([2]; 1% in mixture 2 (Wet granulation), 2 weeks 50° C./75% RH): 0.8% | DP[%] degradation products ([2]; 1% in mixture 3 (Roller compaction), 2 weeks 50° C., tight container): 0.8% | DP[%] degradation products ([2]; 1% in mixture 3 (Roller compaction), 2 weeks 50° C./75% RH): 0.8% | Chemical stability in the bulk [3, 10]: chemically stable | Solid form change of bulk under stress [3, 10]: crystallized into the crystalline Modification A | Bulk (XRPD) solid form after stress ([3]; 1 week 80° C., tight container): NX Mod A | DP[%] degradation products, Bulk (HPLC) ([3]; 1 week 80° C., tight container): 0.7% | Bulk (XRPD) solid form after stress ([3]; 1 week 80° C./75% RH): NX Mod A | DP[%] degradation products, Bulk (HPLC) ([3]; 1 week 80° C./75% RH): 0.7%

SMILES: O=C1CC2(CCN(C(=O)NCc3ccc(F)cc3)CC2)Nc2ccc(F)cc21 [Hydrate HA, 6′-fluoro-N-(4-fluorobenzyl)-4′-oxo-3′,4′-dihydro-1′H-spiro[piperidine-4,2′-quinoline]-1-carboxamide]
Form change after exposure to low humidity (Humidity controlled XRPD; about 12 hours at 5% RH): XRPD pattern changed to Form E | Stability of form in humidity controlled XRPD (Humidity controlled XRPD; relative humidity decreased from 40% RH to 5% RH at 25° C.): remains stable | Water activity (aw) at which the form is stable ([4]; 25° C.): ≥ 0.9 | Water activity (aw) at which the form is stable ([4]; 40° C.): > 0.95 | Temperature of transformation into Form E ([5]; heating): about 70 °C

SMILES: O=C1CC2(CCN(C(=O)NCc3ccc(F)cc3)CC2)Nc2ccc(F)cc21 [Form D, 6′-fluoro-N-(4-fluorobenzyl)-4′-oxo-3′,4′-dihydro-1′H-spiro[piperidine-4,2′-quinoline]-1-carboxamide]
Outcome of competitive slurry experiment with Form A [6]: will convert into Form A | Temperature of transformation into Form A upon heating ([5]; heating): above 190 °C

SMILES: O=C1CC2(CCN(C(=O)NCc3ccc(F)cc3)CC2)Nc2ccc(F)cc21 [Form C, 6′-fluoro-N-(4-fluorobenzyl)-4′-oxo-3′,4′-dihydro-1′H-spiro[piperidine-4,2′-quinoline]-1-carboxamide]
Outcome of competitive slurry experiment with Form A [6]: conversion of Form C into Form A | Transition temperature Form C / Form A (enantiotropic relationship) ([6]; based on competitive slurry experiments): below 25 °C | Temperature of transformation into Form A upon heating ([5]; heating): about 150 °C

Second part, the compound after the results:

Degradation ([7]; 0.1% suspension/solution at high pH, 1 week at 80° C.): less than 1% | Degradation ([7]; 0.1% suspension/solution in pH 1 buffer, 80° C., one week): about 5%
SMILES: O=C1CC2(CCN(C(=O)NCc3ccc(F)cc3)CC2)Nc2ccc(F)cc21 [compound of Formula (I), 6′-fluoro-N-(4-fluorobenzyl)-4′-oxo-3′,4′-dihydro-1′H-spiro[piperidine-4,2′-quinoline]-1-carboxamide]

Bulk (XRPD) solid form after stress [1]: No change | CL color [1, 11]: B | DP[%] degradation products, Bulk (HPLC) [1, 11]: 1.2% | Increase in degradation products upon light stress ([1]; listed as Modification A): 0.6% | Crystal structure after slurrying (equilibration) for prolonged time ([6]; various solvents): preserves its crystal structure | DP[%] degradation products ([2]; 1% in mixture 1 (Dry Blend), 2 weeks 50° C., tight container, listed as Modification A (NX-27)): 0.4% | DP[%] degradation products ([2]; 1% in mixture 1 (Dry Blend), 2 weeks 50° C./75% RH, listed as Modification A (NX-27)): 0.4% | DP[%] degradation products ([2]; 1% in mixture 2 (Wet granulation), 2 weeks 50° C., tight container, listed as Modification A (NX-27)): 0.4% | DP[%] degradation products ([2]; 1% in mixture 2 (Wet granulation), 2 weeks 50° C./75% RH, listed as Modification A (NX-27)): 0.4% | DP[%] degradation products ([2]; 1% in mixture 3 (Roller compaction), 2 weeks 50° C., tight container, listed as Modification A (NX-27)): 0.4% | DP[%] degradation products ([2]; 1% in mixture 3 (Roller compaction), 2 weeks 50° C./75% RH, listed as Modification A (NX-27)): 0.4% | DP[%] degradation products (HPLC area-%) ([8]; 0.1% solution or suspension, NMP): 14.3% | CL color ([8]; 0.1% solution or suspension, pH 4.7, acetate buffer): A | Suspension or clear solution after stress test ([8]; Water): ↓ | Suspension or clear solution after stress test ([8]; pH 1.0, 0.1N HCl): ↓ | Suspension or clear solution after stress test ([8]; pH 3.0, citrate buffer): ↓ | Suspension or clear solution after stress test ([8]; pH 6.8, phosphate buffer): ↓ | Suspension or clear solution after stress test ([8]; pH 9.0, borate buffer): ↓ | Chemical stability in the bulk [3, 10]: chemically stable | Bulk (XRPD) solid form after stress [3, 12]: No change | DP[%] degradation products, Bulk (HPLC) [3, 12]: 0.6% | DP[%] degradation products, Bulk (HPLC) ([3]; 1 week 80° C./75% RH): 0.7% | Bulk (XRPD) solid form after stress ([3]; 1 week 80° C./75% RH, listed as Modification A (NX-27)): No change | Physical stability in bulk ([3]; bulk): physically stable | Hygroscopicity [9]: slightly hygroscopic | Maximum water uptake ([9]; 95% relative humidity at 25° C.): 0.6% | Water activity (aw) at which the form is stable ([4]; 40° C.): ≤ 0.8 | Thermal decomposition temperature ([5]; TGA): 240 °C | CL color ([7]; Acetonitrile): A | DP[%] degradation products (HPLC area-%) ([7]; Acetonitrile): 1.2% | CL color ([7]; Dioxane): A | DP[%] degradation products (HPLC area-%) ([7]; Dioxane): 56.8% | CL color ([7]; Ethanol): A | DP[%] degradation products (HPLC area-%) ([7]; Ethanol): 16.6% | CL color ([7]; MEK): A | DP[%] degradation products (HPLC area-%) ([7]; MEK): 7.6% | CL color ([7]; NMP): A | CL color ([7]; Water): A | DP[%] degradation products (HPLC area-%) ([7]; Water): 1.2% | CL color ([7]; pH 1.0, 0.1N HCl): A | DP[%] degradation products (HPLC area-%) ([7]; pH 1.0, 0.1N HCl): 5.6% | CL color ([7]; pH 3.0, citrate buffer): A | DP[%] degradation products (HPLC area-%) ([7]; pH 3.0, citrate buffer): 1.5% | DP[%] degradation products (HPLC area-%) ([7]; pH 4.7, acetate buffer): 1.4% | CL color ([7]; pH 6.8, phosphate buffer): A | DP[%] degradation products (HPLC area-%) ([7]; pH 6.8, phosphate buffer): 1.2% | CL color ([7]; pH 9.0, borate buffer): A | DP[%] degradation products (HPLC area-%) ([7]; pH 9.0, borate buffer): 1.1% | Suspension or clear solution after stress test ([7]; Acetonitrile): * | Suspension or clear solution after stress test ([7]; Dioxane): * | Suspension or clear solution after stress test ([7]; Ethanol): * | Suspension or clear solution after stress test ([7]; MEK): * | Suspension or clear solution after stress test ([7]; NMP): * | Suspension or clear solution after stress test ([7]; pH 4.7, acetate buffer): ↓
SMILES: O=C1CC2(CCN(C(=O)NCc3ccc(F)cc3)CC2)Nc2ccc(F)cc21 [Form A, 6′-fluoro-N-(4-fluorobenzyl)-4′-oxo-3′,4′-dihydro-1′H-spiro[piperidine-4,2′-quinoline]-1-carboxamide]
